Data: US9073862B2, “Substituted 2-oxy-quinoline-3-carboxamides as KCNQ2/3 modulators” (Grünenthal GmbH, priority 2010, dated 2015)

How the values were obtained:
KCNQ2/3 channels = molecular target: T1, KCNQ2/3 channels (Homo sapiens, UniProt O43525+O43526); experiment: Fluorescence assay using a voltage sensitive dye (fluorimetry); assay type: cell-based; conditions: CHO-K1 cells expressing KCNQ2/3 channels; for Emax: relative to retigabine = 100%, read-out: Fluorimetry % efficacy (retigabine = 100%)
T1 construct: expressed in transfected cells; host or cells: CHO-K1
Description: Method I. Fluorescence Assay Using a Voltage Sensitive Dye (Fluorimetry)
[…] CHO-K1 cells expressing KCNQ2/3 channels are cultivated adherently at 37° C., 5% CO2 and 95% humidity in cell culture bottles (e.g. 80 cm^2 TC flasks, Nunc) with DMEM-high glucose (Sigma Aldrich, D7777) including 10% FCS (PAN Biotech, e.g. 3302-P270521) or alternatively MEM Alpha Medium (1×, liquid, Invitrogen, #22571), 10% fetal calf serum (FCS) (Invitrogen, #10270-106, heat-inactivated) and the necessary selection antibiotics.
Before being sown out for the measurements, the cells are washed with 1×DPBS buffer Ca^2+/Mg^2+-free (e.g. Invitrogen, #14190-094) and detached from the bottom of the culture vessel by using Accutase (PAA Laboratories, #L11-007) (incubation with Accutase for 15 min at 37° C.). The cell number is determined using a CASY™ cell counter (TCC, Schärfe System). Depending on the optimal density for each individual cell line, 20,000-30,000 cells/well/100 μl are seeded onto 96-well Corning™ CellBIND™ assay plates (Flat Clear Bottom Black Polystyrene Microplates, #3340). Freshly seeded cells are then left to settle for one hour at room temperature, followed by incubation for 24 hours at 37° C., 5% CO2 and 95% humidity.
The voltage-sensitive fluorescent dye from the Membrane Potential Assay Kit (Red™ Bulk format part R8123 for FLIPR, MDS Analytical Technologies™) is prepared by dissolving the contents of one vessel Membrane Potential Assay Kit Red Component A in 200 ml of extracellular buffer (ES buffer, 120 mM NaCl, 1 mM KCl, 10 mM HEPES, 2 mM CaCl2, 2 mM MgCl2, 10 mM glucose; pH 7.4). After removal of the nutrient medium, the cells are washed once with 200 μl of ES buffer, then loaded for 45 min at room temperature in 100 μl of dye solution in the dark.
Fluorescence measurements are carried out in a BMG Labtech FLUOstar™, BMG Labtech NOVOstar™ or BMG Labtech POLARstar™ instrument (525 nm excitation, 560 nm emission, Bottom Read mode). After incubation with the dye, 50 μl of the test substances in the desired concentrations, or 50 μl of ES buffer for control purposes, are applied to the wells of the assay plate and incubated for 30 min at room temperature while being shielded from light. The fluorescence intensity of the dye is then measured for 5 min and the fluorescence value F1 of each well is thus determined at a given, constant time. 15 μl of a KCl solution are then added to each well (final concentration of potassium ions 92 mM). The change in fluorescence intensity is subsequently monitored until all the relevant values have been obtained (mainly 5-30 min). At a given time post KCl application, a fluorescence value F2 is determined, in this case at the time of the fluorescence peak.
For calculation, the fluorescence intensity F2 is corrected for the fluorescence intensity F1, and the activity (ΔF/F) of the target compound on the potassium channel is determined as follows:
In order to determine whether a substance has agonistic activity,
[formula] can be related to
[formula] of control wells.
[formula] is determined by adding to the well only the buffer solution instead of the test substance, determining the value F1K of the fluorescence intensity, adding the potassium ions as described above, and measuring a value F2K of the fluorescence intensity. F2K and F1K are then calculated as follows: […]
A substance has an agonistic activity on the potassium channel if
[formula] is greater than
Independently of the comparison of
[formula] it is possible to conclude that a target compound has agonistic activity if
[formula] increases dose dependently.
Calculations of EC50 and IC50 values are carried out with the aid of ‘Prism v4.0’ software (Graph Pad Software™).

[1] = tested on: withdrawal reflex of the rat tail (tail flick) in response to a radiant heat beam; experiment: Low-intensity tail flick test (rat); assay type: in vivo; conditions: po, peroral; for ED50: at time of maximum efficacy
Description: Method II. Low-Intensity Tail Flick Test (Rat)
In the low-intensity tail flick test, the determination of the antinociceptive effect of the compounds according to the invention towards an acute noxious thermal stimulus is carried out by measuring the withdrawal reflex of the rat tail (tail flick) in response to a radiant heat beam (analgesia meter; model 2011 of the company Rhema Labortechnik, Hofheim, Germany) according to the method described by D'Amour and Smith (J. Pharm. Exp. Ther. 72, 74 79 (1941). To this end, the rats were placed in a plexiglas restrainer, and a low-intensity radiant heat beam (48° C.) was focused onto the dorsal surface of the tail root. The stimulus intensity was adjusted to result in a mean pre-drug control withdrawal latency of about 7 s, thus also allowing a supraspinal modulation of the spinally mediated acute nociceptive reflex. A cutoff time of 30 s was applied to avoid tissue damage. Male Sprague-Dawley rats (Janvier, Le Genest St. Isle, Frankreich) with weights of 200-250 g were used. 10 rats were used per group. Before administration of a compound according to the invention, the animals were pre-tested twice in the course of five minutes and the mean of these measurements was calculated as the pre-test mean. The antinociceptive effect was determined at 20, 40 and 60 min after peroral compound administration. The antinociceptive effect was calculated based on the increase in the tail withdrawal latency according to the following formula and is expressed as percentage of the maximum possible effect (MPE [%]): MPE=[(T1−T0)/(T2−T0)]*100
In this, T0 is the control latency time before and T1 the latency time after administration of the compound, T2 is the cutoff time and MPE is the maximum possible effect. Employing variant analysis (repeated measures ANOVA) allowed testing of statistically significant differences between the compounds according to the invention and the vehicle group. The significance level was set to p≦0.05. To determine the dose dependency, the particular compound according to the invention was administered in 3-5 logarithmically increasing doses, including a threshold dose and a maximum effective dose, and the ED50 values were determined with the aid of regression analysis. The ED50 calculation was performed at the time of maximum efficacy (usually 20 min after administration of the compounds).

[2] = read-out: Low intensity tail flick, rat, peroral, MPE (dose)

SMILES | EC50 (KCNQ2/3 channels) | Emax (KCNQ2/3 channels) | inhibition in vivo at 6.81 mg/kg [1, 2] | inhibition in vivo at 10 mg/kg [1, 2] | ED50 [1] | inhibition in vivo at 4.64 mg/kg ([1]; dose 4.64 mg/kg, read-out: Low intensity tail flick, rat, peroral, MPE (dose))
COc1nc2cc(C(F)(F)F)ccc2c(OC)c1C(=O)NCc1ccc(F)cc1 [Example 16, N-[(4-fluorophenyl)-methyl]-2,4-dimethoxy-7-(trifluoromethyl)-quinoline-3-carboxylic acid amide] | 106 nM | 159% | – | 74% | – | –
COc1nc2cc(C(F)(F)F)ccc2c(C)c1C(=O)NCc1cccc(F)c1 [Example 4, N-[(3-fluorophenyl)-methyl]-2-methoxy-4-methyl-7-(trifluoromethyl)-quinoline-3-carboxylic acid amide] | 73 nM | 105% | – | – | 6.7 mg/kg | –
COc1nc2cc(C(F)(F)F)ccc2c(C)c1C(=O)NCCCC(C)(C)C [Example 29, N-(4,4-dimethyl-pentyl)-2-methoxy-4-methyl-7-(trifluoromethyl)-quinoline-3-carboxylic acid amide] | 28 nM | 244% | – | 28% | – | –
CCOc1nc2cc(C(F)(F)F)ccc2c(C)c1C(=O)NCc1ccc(C)c(F)c1 [Example 20, 2-ethoxy-N-[(3-fluoro-4-methyl-phenyl)-methyl]-4-methyl-7-(trifluoromethyl)-quinoline-3-carboxylic acid amide] | 72 nM | 146% | – | 24% | – | –
COc1nc2cc(C(F)(F)F)ccc2c(C)c1C(=O)NCc1ccc(F)cc1 [Example 5, N-[(4-fluorophenyl)-methyl]-2-methoxy-4-methyl-7-(trifluoromethyl)-quinoline-3-carboxylic acid amide] | 57 nM | 122% | 34% | – | – | –
CCOc1nc2cc(C(F)(F)F)ccc2c(C)c1C(=O)NCc1ccc(F)cc1 [Example 3, 2-ethoxy-N-[(4-fluorophenyl)-methyl]-4-methyl-7-(trifluoromethyl)-quinoline-3-carboxylic acid amide] | 39 nM | 122% | – | – | 2.5 mg/kg | –
CCOc1nc2cc(C(F)(F)F)ccc2c(OC)c1C(=O)NCc1cccc(F)c1 [Example 12, 2-ethoxy-N-[(3-fluorophenyl)-methyl]-4-methoxy-7-(trifluoremethyl)-quinoline-3-carboxylic acid amide] | 104 nM | 170% | – | – | – | 27%
CCOc1nc2cc(C(F)(F)F)ccc2c(OC)c1C(=O)NCc1ccc(F)cc1 [Example 14, 2-ethoxy-N-[(4-fluorophenyl)-methyl]-4-methoxy-7-(trifluoromethyl)-quinoline-3-carboxylic acid amide] | 75 nM | 155% | – | – | – | –
COCCOc1nc2cc(C(F)(F)F)ccc2c(C)c1C(=O)NCc1ccc(F)cc1 [Example 8, N-[(4-fluorophenyl)-methyl]-2-(2-methoxy-ethoxy)-4-methyl-7-(trifluoromethyl)-quinoline-3-carboxylic acid amide] | 143 nM | 94% | – | 22% | – | –
Cc1c(C(=O)NCc2cccc(F)c2)c(OC(C)C)nc2cc(C(F)(F)F)ccc12 [Example 10, N-[(3-fluorophenyl)-methyl]-2-isopropoxy-4-methyl-7-(trifluoromethyl)-quinoline-3-carboxylic acid amide] | 87 nM | 175% | – | – | 3.8 mg/kg | –
COc1nc2cc(C(F)(F)F)ccc2c(C)c1C(=O)NCCC(C)(C)C [Example 1, N-(3,3-dimethyl-butyl)-2-methoxy-4-methyl-7-(trifluoromethyl)-quinoline-3-carboxylic acid amide] | – | 57% | – | – | – | –
CCOc1nc2cc(C(F)(F)F)ccc2c(C)c1C(=O)NCCCC(C)C [Example 27, 2-ethoxy-4-methyl-N-(4-methyl-pentyl)-7-(trifluoromethyl)-quinoline-3-carboxylic acid amide] | 84 nM | 173% | – | – | – | –

Further lines, with some results ahead:

EC50 (KCNQ2/3 channels) | Emax (KCNQ2/3 channels) | SMILES | inhibition in vivo at 6.81 mg/kg [1, 2] | inhibition in vivo at 10 mg/kg [1, 2] | ED50 [1] | inhibition in vivo at 4.64 mg/kg ([1]; dose 4.64 mg/kg, read-out: Low intensity tail flick, rat, peroral, MPE (dose))
82 nM | 112% | CCOc1nc2cc(C#N)ccc2c(C)c1C(=O)NCc1ccc(F)cc1 [Example 35, 7-cyano-2-ethoxy-N-[(4-fluorophenyl)-methyl]-4-methyl-quinoline-3-carboxylic acid amide] | 32% | – | – | –
25 nM | 108% | Cc1c(C(=O)NCc2cccc(F)c2)c(OCC(F)(F)F)nc2cc(C(F)(F)F)ccc12 [Example 50, N-[(3-fluorophenyl)-methyl]-4-methyl-2-(2,2,2-trifluoro-ethoxy)-7-(trifluoromethyl)-quinoline-3-carboxylic acid amide] | – | 24% | – | –
50 nM | 214% | CCOc1nc2cc(C(F)(F)F)ccc2c(C)c1C(=O)NCCCC(C)(C)C [Example 30, N-(4,4-dimethyl-pentyl)-2-ethoxy-4-methyl-7-(trifluoromethyl)-quinoline-3-carboxylic acid amide] | – | – | – | –
123 nM | 137% | COc1nc2cc(C(F)(F)F)ccc2c(C)c1C(=O)NCc1cccc(F)c1O [Example 42, N-[(3-fluoro-2-hydroxy-phenyl)-methyl]-2-methoxy-4-methyl-7-(trifluoromethyl)-quinoline-3-carboxylic acid amide] | – | – | – | –
– | 10% | COc1nc2cc(C(F)(F)F)ccc2c(C)c1C(=O)NCc1cccc(F)c1OC [Example 39, N-[(3-fluoro-2-methoxy-phenyl)-methyl]-2-methoxy-4-methyl-7-(trifluoromethyl)-quinoline-3-carboxylic acid amide] | – | – | – | –
205 nM | 67% | CCOc1nc2ccccc2c(C(F)(F)F)c1C(=O)NCc1cccc(F)c1 [Example 52, 2-ethoxy-N-[(3-fluorophenyl)-methyl]-4-(trifluoromethyl)-quinoline-3-carboxylic acid amide] | – | – | – | –
